Several values for one entry are separate records, joined by “and”; a condition that tells them apart may be missing. Equal values may be shown once. Read-outs that look alike come from different tables or passages of the source.

Description: The first step in the method for assigning a BI to a test sample material on the BI reference scale is to create the BI reference swatches. […] Fabric swatches for this test are white knit polycotton (4 inch×4 inch) swatches from EMC ordered as PC 50/50. The supplier is instructed to strip the swatches first, stripping involves washing twice with a fragrance-free detergent and rinsing three times.
Making the BI Reference Swatches
The BI scale contains one clean swatch with no malodor applied. […] These solutions are pipetted to the middle of the swatches. […] After drying for 30 minutes in a vented hood, the swatches are wrapped in aluminum foil to prevent odor contamination to the treated swatch. A clean untreated swatch is also included as the lowest anchor point of reference for malodor strength on the BI scale. The BI reference scale swatches should be used within 0.5 to 12 hours and discarded after 12 hours. The swatches are used as scale anchor points when graders evaluate a test sample(s) and are assigned a Blocker Index (BI) as show in Table 11 below.
The perfumer/expert grader is asked to rank order swatches according to a scale between 0 and 3.

Regarding `CC(C)CC(=O)O` [isovaleric acid], the “BI rank Ave” value (2 μL 0.08% isovaleric acid, all graders (Table 11)) was found to be 1.0. The “BI rank by individual expert grader” value is 0.5 and 2.0 and 1.0 (stripped swatch with 2 μL 0.08% isovaleric acid); 2.0 and 2.5 (stripped swatch with 5 μL 0.08% isovaleric acid); 3.0 and 2.5 (stripped swatch with 20 μL 0.08% isovaleric acid).
